# From PubChem BioAssay (NCI)
#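 All cell lines were grown in 96-well plates and treated with compound for 48 hours. The concentration for 50% growth inhibition is given as GI50. The concentration for full growth arrest is given as TGI.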
# Columns and labels:
# Test in all cases: growth of human tumour cells (NCI), 48 h
# K-562 leukemia = test system: K-562 leukemia
# RXF 393 renal = test system: RXF 393 renal
# SF-268 CNS = test system: SF-268 CNS
# MOLT-4 leukemia = test system: MOLT-4 leukemia
# SR leukemia = test system: SR leukemia
# MCF7 breast = test system: MCF7 breast
# HL-60(TB) leukemia = test system: HL-60(TB) leukemia
# BT-549 breast = test system: BT-549 breast
# HOP-92 NSCLC = test system: HOP-92 NSCLC
# SK-MEL-2 melanoma = test system: SK-MEL-2 melanoma
# NCI-H522 lung = test system: NCI-H522 lung
# M14 melanoma = test system: M14 melanoma
# IGROV1 ovarian = test system: IGROV1 ovarian
# OVCAR-8 ovarian = test system: OVCAR-8 ovarian
# HCT-15 colon = test system: HCT-15 colon
# A549 NSCLC = test system: A549 NSCLC
# 786-0 renal = test system: 786-0 renal
# RPMI-8226 leukemia = test system: RPMI-8226 leukemia
# A498 renal = test system: A498 renal
# UACC-62 melanoma = test system: UACC-62 melanoma
# ACHN renal = test system: ACHN renal
# OVCAR-5 ovarian = test system: OVCAR-5 ovarian
# SK-OV-3 ovarian = test system: SK-OV-3 ovarian
# NCI-H226 lung = test system: NCI-H226 lung
# HOP-62 NSCLC = test system: HOP-62 NSCLC
# SNB-75 CNS = test system: SNB-75 CNS
# UACC-257 melanoma = test system: UACC-257 melanoma
# DU-145 prostate = test system: DU-145 prostate
# HT29 colon = test system: HT29 colon
# SF-539 CNS = test system: SF-539 CNS
# SF-295 CNS = test system: SF-295 CNS
# SK-MEL-5 melanoma = test system: SK-MEL-5 melanoma
# MDA-MB-435 = test system: MDA-MB-435
# UO-31 renal = test system: UO-31 renal
# SW-620 colon = test system: SW-620 colon
# SN12C renal = test system: SN12C renal
# OVCAR-4 ovarian = test system: OVCAR-4 ovarian
# HCT-116 colon = test system: HCT-116 colon
# HCC-2998 colon = test system: HCC-2998 colon
# MALME-3M melanoma = test system: MALME-3M melanoma
# PC-3 prostate = test system: PC-3 prostate
# KM12 colon = test system: KM12 colon
# SNB-19 CNS = test system: SNB-19 CNS
# NCI-H460 lung = test system: NCI-H460 lung
# T-47D breast = test system: T-47D breast
# LOX IMVI melanoma = test system: LOX IMVI melanoma
# MDA-MB-231 breast = test system: MDA-MB-231 breast
# CCRF-CEM leukemia = test system: CCRF-CEM leukemia
# COLO 205 colon = test system: COLO 205 colon
# U251 CNS = test system: U251 CNS
# EKVX NSCLC = test system: EKVX NSCLC
# HS 578T breast = test system: HS 578T breast
# CAKI-1 renal = test system: CAKI-1 renal
# SK-MEL-28 melanoma = test system: SK-MEL-28 melanoma
structure (smiles),measurement,setting,value
CO/N=C1\CCc2c(sc(NC(=O)c3cccc(C(F)(F)F)c3)c2C(N)=O)C1,GI50,K-562 leukemia,> 100000 nM
same,TGI,K-562 leukemia,> 100000 nM
same,GI50,RXF 393 renal,1910 nM
same,TGI,RXF 393 renal,3650 nM
same,GI50,SF-268 CNS,4250 nM
same,TGI,SF-268 CNS,> 100000 nM
same,GI50,MOLT-4 leukemia,> 100000 nM
same,TGI,MOLT-4 leukemia,> 100000 nM
same,GI50,SR leukemia,> 100000 nM
same,TGI,SR leukemia,> 100000 nM
same,GI50,MCF7 breast,2370 nM
same,TGI,MCF7 breast,> 100000 nM
same,GI50,HL-60(TB) leukemia,> 100000 nM
same,TGI,HL-60(TB) leukemia,> 100000 nM
same,GI50,BT-549 breast,3530 nM
same,TGI,BT-549 breast,> 100000 nM
same,GI50,HOP-92 NSCLC,1560 nM
same,TGI,HOP-92 NSCLC,4060 nM
same,GI50,SK-MEL-2 melanoma,4080 nM
same,TGI,SK-MEL-2 melanoma,96300 nM
CCNC(=O)N1CCc2cc(OC)c(OCCc3ccc(OC)cc3)cc2C1c1ccc([N+](=O)[O-])cc1C (stereo unspecified),GI50,NCI-H522 lung,730 nM
same,TGI,NCI-H522 lung,3410 nM
same,GI50,M14 melanoma,759 nM
same,TGI,M14 melanoma,> 100000 nM
same,GI50,IGROV1 ovarian,759 nM
same,TGI,IGROV1 ovarian,> 100000 nM
same,GI50,K-562 leukemia,381 nM
same,TGI,K-562 leukemia,> 100000 nM
same,GI50,OVCAR-8 ovarian,812 nM
same,TGI,OVCAR-8 ovarian,> 100000 nM
same,GI50,HCT-15 colon,382 nM
same,TGI,HCT-15 colon,> 100000 nM
same,GI50,A549 NSCLC,840 nM
same,TGI,A549 NSCLC,> 100000 nM
same,GI50,786-0 renal,619 nM
same,TGI,786-0 renal,> 100000 nM
same,GI50,RPMI-8226 leukemia,631 nM
same,TGI,RPMI-8226 leukemia,7140 nM
same,GI50,A498 renal,1550 nM
same,TGI,A498 renal,6690 nM
same,GI50,UACC-62 melanoma,547 nM
same,TGI,UACC-62 melanoma,> 100000 nM
same,GI50,SF-268 CNS,881 nM
same,TGI,SF-268 CNS,> 100000 nM
same,GI50,ACHN renal,875 nM
same,TGI,ACHN renal,> 100000 nM
same,GI50,OVCAR-5 ovarian,2140 nM
same,TGI,OVCAR-5 ovarian,> 100000 nM
same,GI50,SK-OV-3 ovarian,2830 nM
same,TGI,SK-OV-3 ovarian,> 100000 nM
same,GI50,NCI-H226 lung,2090 nM
same,TGI,NCI-H226 lung,> 100000 nM
same,GI50,HOP-62 NSCLC,2280 nM
same,TGI,HOP-62 NSCLC,> 100000 nM
same,GI50,MOLT-4 leukemia,485 nM
same,TGI,MOLT-4 leukemia,> 100000 nM
same,GI50,SNB-75 CNS,680 nM
same,TGI,SNB-75 CNS,6950 nM
same,GI50,UACC-257 melanoma,3540 nM
same,TGI,UACC-257 melanoma,> 100000 nM
same,GI50,DU-145 prostate,1870 nM
same,TGI,DU-145 prostate,> 100000 nM
same,GI50,HT29 colon,706 nM
same,TGI,HT29 colon,6040 nM
same,GI50,SF-539 CNS,702 nM
same,TGI,SF-539 CNS,6770 nM
same,GI50,SF-295 CNS,576 nM
same,TGI,SF-295 CNS,> 100000 nM
same,GI50,SK-MEL-5 melanoma,794 nM
same,TGI,SK-MEL-5 melanoma,3590 nM
same,GI50,MDA-MB-435,491 nM
same,TGI,MDA-MB-435,> 100000 nM
same,GI50,UO-31 renal,1540 nM
same,TGI,UO-31 renal,> 100000 nM
same,GI50,SW-620 colon,551 nM
same,TGI,SW-620 colon,> 100000 nM
same,GI50,SN12C renal,1840 nM
same,TGI,SN12C renal,> 100000 nM
same,GI50,SR leukemia,327 nM
same,TGI,SR leukemia,> 100000 nM
same,GI50,OVCAR-4 ovarian,2800 nM
same,TGI,OVCAR-4 ovarian,> 100000 nM
same,GI50,HCT-116 colon,437 nM
same,TGI,HCT-116 colon,> 100000 nM
same,GI50,HCC-2998 colon,1950 nM
same,TGI,HCC-2998 colon,> 100000 nM
same,GI50,MCF7 breast,540 nM
same,TGI,MCF7 breast,> 100000 nM
same,GI50,MALME-3M melanoma,4120 nM
same,TGI,MALME-3M melanoma,> 100000 nM
same,GI50,HL-60(TB) leukemia,608 nM
same,TGI,HL-60(TB) leukemia,10600 nM
same,GI50,PC-3 prostate,559 nM
same,TGI,PC-3 prostate,> 100000 nM
same,GI50,KM12 colon,4640 nM
same,TGI,KM12 colon,> 100000 nM
same,GI50,SNB-19 CNS,1330 nM
same,TGI,SNB-19 CNS,> 100000 nM
same,GI50,NCI-H460 lung,368 nM
same,TGI,NCI-H460 lung,3300 nM
same,GI50,T-47D breast,3340 nM
same,TGI,T-47D breast,> 100000 nM
same,GI50,LOX IMVI melanoma,387 nM
same,TGI,LOX IMVI melanoma,7650 nM
same,GI50,MDA-MB-231 breast,797 nM
same,TGI,MDA-MB-231 breast,> 100000 nM
same,GI50,CCRF-CEM leukemia,662 nM
same,TGI,CCRF-CEM leukemia,> 100000 nM
same,GI50,BT-549 breast,1670 nM
same,TGI,BT-549 breast,6120 nM
same,GI50,COLO 205 colon,797 nM
same,TGI,COLO 205 colon,> 100000 nM
same,GI50,U251 CNS,580 nM
same,TGI,U251 CNS,> 100000 nM
same,GI50,EKVX NSCLC,> 100000 nM
same,TGI,EKVX NSCLC,> 100000 nM
same,GI50,HOP-92 NSCLC,1040 nM
same,TGI,HOP-92 NSCLC,8030 nM
same,GI50,HS 578T breast,1570 nM
same,TGI,HS 578T breast,7350 nM
same,GI50,CAKI-1 renal,1090 nM
same,TGI,CAKI-1 renal,> 100000 nM
same,GI50,SK-MEL-28 melanoma,869 nM
same,TGI,SK-MEL-28 melanoma,> 100000 nM
same,GI50,SK-MEL-2 melanoma,2370 nM
same,TGI,SK-MEL-2 melanoma,> 100000 nM
